According to patent US20250312462A1, “PAK1 DEGRADERS AND METHODS OF USE THEREOF” (INSTITUTE FOR CANCER RESEARCH D/B/A THE RESEARCH INSTITUTE …, priority 2022, published 2025):

Legend:
ASK1 = ASK1 (Homo sapiens, UniProt Q99683); test: KINOMEscan; details: read-out: Percent Control
Description: (§1) The kinase engagement assay (KINOMEscan®) was performed by DiscoverX assessing binding abilities toward a set of kinases.

FLT1 = FLT1 (Homo sapiens, UniProt P17948); test: KINOMEscan; details: read-out: Percent Control
Description: as §1

PDGFRA = PDGFRA (Homo sapiens, UniProt P16234); test: KINOMEscan; details: read-out: Percent Control
Description: as §1

HIPK1 = HIPK1 (Homo sapiens, UniProt Q86Z02); test: KINOMEscan; details: read-out: Percent Control
Description: as §1

ERBB4 = ERBB4 (Homo sapiens, UniProt Q15303); test: KINOMEscan; details: read-out: Percent Control
Description: as §1

TTK = TTK (Homo sapiens, UniProt P33981); test: KINOMEscan; details: read-out: Percent Control
Sequence of TTK (P33981 whole entry): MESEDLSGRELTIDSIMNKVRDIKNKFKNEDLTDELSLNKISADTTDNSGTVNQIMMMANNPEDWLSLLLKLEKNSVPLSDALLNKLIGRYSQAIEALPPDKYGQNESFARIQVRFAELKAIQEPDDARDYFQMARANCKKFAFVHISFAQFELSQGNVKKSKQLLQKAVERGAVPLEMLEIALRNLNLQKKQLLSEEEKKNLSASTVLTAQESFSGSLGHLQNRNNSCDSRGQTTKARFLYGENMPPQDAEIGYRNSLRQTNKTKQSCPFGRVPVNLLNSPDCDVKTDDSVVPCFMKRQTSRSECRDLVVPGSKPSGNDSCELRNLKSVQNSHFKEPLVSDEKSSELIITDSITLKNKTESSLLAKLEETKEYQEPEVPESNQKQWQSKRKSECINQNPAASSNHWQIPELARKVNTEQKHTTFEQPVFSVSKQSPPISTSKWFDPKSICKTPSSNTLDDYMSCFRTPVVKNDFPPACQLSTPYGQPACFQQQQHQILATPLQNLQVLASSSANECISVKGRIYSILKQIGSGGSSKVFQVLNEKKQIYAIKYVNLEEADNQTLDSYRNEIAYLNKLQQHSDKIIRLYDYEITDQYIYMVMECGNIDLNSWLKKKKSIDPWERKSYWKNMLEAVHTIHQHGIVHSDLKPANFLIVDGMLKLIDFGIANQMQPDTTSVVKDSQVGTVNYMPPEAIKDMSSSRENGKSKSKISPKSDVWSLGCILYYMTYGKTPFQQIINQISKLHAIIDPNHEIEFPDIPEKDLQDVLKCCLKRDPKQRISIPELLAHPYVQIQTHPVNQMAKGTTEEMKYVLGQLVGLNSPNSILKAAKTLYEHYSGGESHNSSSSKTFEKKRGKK
Description: as §1

IGF1R = IGF1R (Homo sapiens, UniProt P08069); test: KINOMEscan; details: read-out: Percent Control
Description: as §1

MAK = MAK (Homo sapiens, UniProt P20794); test: KINOMEscan; details: read-out: Percent Control
Description: as §1

CAMK1D = CAMK1D (Homo sapiens, UniProt Q8IU85); test: KINOMEscan; details: read-out: Percent Control
Description: as §1

PAK1 = PAK1 (Homo sapiens, UniProt Q13153); test: KINOMEscan; details: read-out: Percent Control
Sequence of PAK1 (Q13153 whole entry): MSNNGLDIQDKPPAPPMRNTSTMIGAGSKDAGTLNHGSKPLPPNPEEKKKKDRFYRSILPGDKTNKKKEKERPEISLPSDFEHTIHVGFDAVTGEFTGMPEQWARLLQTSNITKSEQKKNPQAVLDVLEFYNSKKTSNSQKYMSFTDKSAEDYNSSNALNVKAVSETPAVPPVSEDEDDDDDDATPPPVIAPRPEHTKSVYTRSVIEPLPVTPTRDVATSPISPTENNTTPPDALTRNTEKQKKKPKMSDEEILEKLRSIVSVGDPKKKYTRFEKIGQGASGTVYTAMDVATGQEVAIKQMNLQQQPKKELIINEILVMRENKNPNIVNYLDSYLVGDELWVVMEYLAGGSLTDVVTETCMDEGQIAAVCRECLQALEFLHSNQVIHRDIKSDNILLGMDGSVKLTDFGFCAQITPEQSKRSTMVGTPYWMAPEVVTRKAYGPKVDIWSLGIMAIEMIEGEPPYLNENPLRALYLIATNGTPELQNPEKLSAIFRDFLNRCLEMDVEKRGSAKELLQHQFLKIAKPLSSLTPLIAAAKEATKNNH
Description: as §1

[1] = molecular target: RSK2(Kin.Dom.1-N-terminal) (Homo sapiens, UniProt P51812); test: KINOMEscan; details: read-out: Percent Control
Sequence of RSK2(Kin.Dom.1-N-terminal) (P51812 68-327 limits assumed): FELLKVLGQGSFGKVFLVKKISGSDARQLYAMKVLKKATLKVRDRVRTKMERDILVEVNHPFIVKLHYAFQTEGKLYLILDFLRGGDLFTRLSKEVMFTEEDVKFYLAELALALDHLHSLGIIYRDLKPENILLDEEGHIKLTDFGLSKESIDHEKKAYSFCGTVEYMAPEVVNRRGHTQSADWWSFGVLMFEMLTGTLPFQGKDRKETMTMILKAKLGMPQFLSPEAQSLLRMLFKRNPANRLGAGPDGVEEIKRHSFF
Description: as §1

TIE2 = TIE2 (Homo sapiens, UniProt Q02763); test: KINOMEscan; details: read-out: Percent Control
Sequence of TIE2 (Q02763 23-1124): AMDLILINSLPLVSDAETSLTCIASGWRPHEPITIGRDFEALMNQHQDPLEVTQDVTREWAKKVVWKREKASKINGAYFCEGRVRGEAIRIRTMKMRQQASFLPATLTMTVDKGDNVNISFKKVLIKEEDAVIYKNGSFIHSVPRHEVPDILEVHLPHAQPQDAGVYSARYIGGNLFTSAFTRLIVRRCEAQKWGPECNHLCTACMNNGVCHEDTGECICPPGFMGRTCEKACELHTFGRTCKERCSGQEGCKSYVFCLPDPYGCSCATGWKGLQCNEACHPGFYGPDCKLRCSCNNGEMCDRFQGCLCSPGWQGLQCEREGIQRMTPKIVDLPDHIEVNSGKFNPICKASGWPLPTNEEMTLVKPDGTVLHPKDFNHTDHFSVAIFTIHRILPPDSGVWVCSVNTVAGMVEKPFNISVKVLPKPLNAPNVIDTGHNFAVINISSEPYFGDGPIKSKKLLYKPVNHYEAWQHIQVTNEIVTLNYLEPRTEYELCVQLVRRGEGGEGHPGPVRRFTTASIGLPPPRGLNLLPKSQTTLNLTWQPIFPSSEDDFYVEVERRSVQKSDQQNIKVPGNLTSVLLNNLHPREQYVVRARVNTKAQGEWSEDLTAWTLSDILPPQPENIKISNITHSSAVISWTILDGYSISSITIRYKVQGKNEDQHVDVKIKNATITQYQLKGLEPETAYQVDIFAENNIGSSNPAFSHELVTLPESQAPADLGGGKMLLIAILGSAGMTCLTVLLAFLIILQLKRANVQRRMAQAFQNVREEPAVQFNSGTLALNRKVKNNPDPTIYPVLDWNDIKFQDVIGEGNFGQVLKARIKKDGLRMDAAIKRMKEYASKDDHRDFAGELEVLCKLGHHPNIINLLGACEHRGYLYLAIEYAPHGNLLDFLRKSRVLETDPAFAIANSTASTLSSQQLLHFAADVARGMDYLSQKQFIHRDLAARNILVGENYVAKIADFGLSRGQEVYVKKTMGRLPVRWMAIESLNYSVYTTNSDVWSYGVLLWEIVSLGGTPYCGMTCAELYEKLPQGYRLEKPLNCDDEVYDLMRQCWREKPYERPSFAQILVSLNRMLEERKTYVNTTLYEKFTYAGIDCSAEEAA
Description: as §1

ERK1 = ERK1 (Homo sapiens, UniProt P27361); test: KINOMEscan; details: read-out: Percent Control
Description: as §1

[2] = molecular target: TYK2(JH2domain-pseudokinase) (Homo sapiens, UniProt P29597); test: KINOMEscan; details: read-out: Percent Control
Description: as §1

CDC2L1 = CDC2L1 (Homo sapiens, UniProt P21127); test: KINOMEscan; details: read-out: Percent Control
Description: as §1

FGFR3(G697C) = FGFR3(G697C) (Homo sapiens, UniProt P22607, G697C); test: KINOMEscan; details: read-out: Percent Control
Description: as §1

PRKCD = PRKCD (Homo sapiens, UniProt Q05655); test: KINOMEscan; details: read-out: Percent Control
Sequence of PRKCD (Q05655 whole entry): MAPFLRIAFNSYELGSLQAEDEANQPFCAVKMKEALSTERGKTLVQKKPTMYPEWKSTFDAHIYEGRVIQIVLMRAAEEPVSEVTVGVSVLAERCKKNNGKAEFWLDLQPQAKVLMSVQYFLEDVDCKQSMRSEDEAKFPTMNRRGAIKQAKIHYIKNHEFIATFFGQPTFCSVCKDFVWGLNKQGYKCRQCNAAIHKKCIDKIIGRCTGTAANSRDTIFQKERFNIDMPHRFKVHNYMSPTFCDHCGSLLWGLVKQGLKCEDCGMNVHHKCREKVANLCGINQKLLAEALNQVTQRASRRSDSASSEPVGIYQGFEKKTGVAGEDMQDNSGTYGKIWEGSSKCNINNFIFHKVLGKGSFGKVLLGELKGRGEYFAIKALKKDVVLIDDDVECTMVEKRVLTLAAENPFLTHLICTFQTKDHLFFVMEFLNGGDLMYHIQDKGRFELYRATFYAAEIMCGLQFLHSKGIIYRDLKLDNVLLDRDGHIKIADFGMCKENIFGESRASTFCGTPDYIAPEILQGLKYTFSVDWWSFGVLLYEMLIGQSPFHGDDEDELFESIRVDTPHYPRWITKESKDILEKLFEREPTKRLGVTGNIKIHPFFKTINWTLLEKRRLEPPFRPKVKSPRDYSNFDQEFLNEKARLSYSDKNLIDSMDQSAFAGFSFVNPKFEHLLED
Description: as §1

IRAK3 = IRAK3 (Homo sapiens, UniProt Q9Y616); test: KINOMEscan; details: read-out: Percent Control
Description: as §1

MEK1 at S298 = test: MEK phosphorylation in OVCAR3 and MCF7 cells, immunoblot; assay type: cell-based; details: 10 nM, 24 hours
Description: FIG. 3A is a series of Western blots showing OVCAR3 and MCF7 cells that were treated for 24 hours with DMSO, 10 nM BJG-05-039, or NVS-PAK1-1 as indicated. MEK and ERK phosphorylation was assessed by immunoblot with the indicated phosphorylation-specific antibodies. FIG. 3B is a Western blot showing MCF7 cells that were stably transduced with a doxycycline-regulated shRNA against PAK1. shRNA expression was induced by the indicated amounts of doxycycline and immunoblots were performed using cell lysates 24 hours post doxycycline addition. FIG. 3C is a Western blot showing MCF7 cells that were treated with vehicle or […] doxycycline. Immunoblots were performed using cell lysates 24 hours post doxycycline addition.
Cells were washed once in PBS and lysed in RIPA buffer (50 mM Tris-HCl, 150 mM NaCl, 0.25% (w/v) sodium deoxycholate, 1% (w/v) NP-40, pH 7.5) containing protease inhibitor cocktail (Roche) and phosphatase inhibitor cocktail (Roche) for 30 minutes on ice. […]
In certain cell lines, PAK1 has well-characterized functions in regulating proliferative signaling. […] As a readout for anti-PAK activity, phosphorylation of MEK1 at S298 was assessed, a direct target site for Group A PAKs (Coles, et al. (2002) Oncogene 21:2236-2244; Slack-Davis, et al. (2003) J. Cell. Biol., 162:281-291), as well as phosphorylation of the downstream target of MEK, ERK. […]

YANK3 = YANK3 (Homo sapiens, UniProt Q86UX6); test: KINOMEscan; details: read-out: Percent Control
Description: as §1

MERTK = MERTK (Homo sapiens, UniProt Q12866); test: KINOMEscan; details: read-out: Percent Control
Description: as §1

ERN1 = ERN1 (Homo sapiens, UniProt O75460); test: KINOMEscan; details: read-out: Percent Control
Description: as §1

[3] = molecular target: ABL1(F317L)-nonphosphorylated (Homo sapiens, UniProt P00519, F317L); test: KINOMEscan; details: read-out: Percent Control
Description: as §1

PCTK3 = PCTK3 (Homo sapiens, UniProt Q07002); test: KINOMEscan; details: read-out: Percent Control
Description: as §1

DYRK2 = DYRK2 (Homo sapiens, UniProt Q92630); test: KINOMEscan; details: read-out: Percent Control
Description: as §1

BRK = BRK (Homo sapiens, UniProt Q13882); test: KINOMEscan; details: read-out: Percent Control
Description: as §1

Sequence of ASK1 (Q99683 whole entry): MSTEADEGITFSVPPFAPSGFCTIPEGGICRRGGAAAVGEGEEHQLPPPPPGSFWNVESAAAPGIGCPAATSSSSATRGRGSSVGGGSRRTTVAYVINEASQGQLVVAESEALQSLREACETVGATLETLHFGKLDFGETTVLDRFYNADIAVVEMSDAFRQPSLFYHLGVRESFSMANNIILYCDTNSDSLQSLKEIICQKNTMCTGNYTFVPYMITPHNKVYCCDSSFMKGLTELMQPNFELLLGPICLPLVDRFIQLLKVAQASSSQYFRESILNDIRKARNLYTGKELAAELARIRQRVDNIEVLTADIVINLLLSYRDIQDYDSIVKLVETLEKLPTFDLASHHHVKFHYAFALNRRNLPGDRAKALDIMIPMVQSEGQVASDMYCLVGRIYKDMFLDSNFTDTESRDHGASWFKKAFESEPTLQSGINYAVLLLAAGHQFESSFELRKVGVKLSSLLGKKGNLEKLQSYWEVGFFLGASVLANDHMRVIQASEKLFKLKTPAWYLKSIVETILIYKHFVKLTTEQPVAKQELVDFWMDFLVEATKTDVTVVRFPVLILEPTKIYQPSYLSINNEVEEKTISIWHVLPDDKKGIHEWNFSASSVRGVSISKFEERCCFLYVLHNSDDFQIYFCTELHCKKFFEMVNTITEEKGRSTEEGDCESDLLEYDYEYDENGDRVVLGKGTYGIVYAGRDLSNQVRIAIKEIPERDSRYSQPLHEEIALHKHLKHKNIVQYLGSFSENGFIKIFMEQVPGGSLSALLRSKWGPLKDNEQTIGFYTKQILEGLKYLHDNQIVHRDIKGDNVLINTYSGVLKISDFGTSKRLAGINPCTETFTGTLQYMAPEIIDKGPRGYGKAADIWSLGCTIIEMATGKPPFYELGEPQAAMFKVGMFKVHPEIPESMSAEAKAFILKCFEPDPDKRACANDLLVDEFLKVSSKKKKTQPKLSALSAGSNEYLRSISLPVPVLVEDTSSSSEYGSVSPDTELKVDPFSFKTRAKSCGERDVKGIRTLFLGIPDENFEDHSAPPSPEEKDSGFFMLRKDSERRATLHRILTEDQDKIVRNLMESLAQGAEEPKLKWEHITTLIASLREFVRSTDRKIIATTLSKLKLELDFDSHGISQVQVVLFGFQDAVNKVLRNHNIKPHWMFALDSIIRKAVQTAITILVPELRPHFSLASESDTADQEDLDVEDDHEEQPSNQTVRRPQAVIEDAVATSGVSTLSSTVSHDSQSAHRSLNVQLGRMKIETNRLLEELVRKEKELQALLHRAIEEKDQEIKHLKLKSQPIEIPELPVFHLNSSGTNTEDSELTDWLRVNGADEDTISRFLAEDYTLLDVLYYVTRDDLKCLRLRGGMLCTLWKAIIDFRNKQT

Q: What does the source list for `O=C1CCC(N2C(=O)c3cccc(NCCCCCCCCNC(=O)N4CC[C@H](NC5=Nc6cc(F)ccc6N(CC(F)F)c6ccc(Cl)cc65)C4)c3C2=O)C(=O)N1` (stereo partly drawn) [BJG-05-039, (3S)-3-((2-Chloro-5-(2,2-difluoroethyl)-8-fluoro-5H-dibenzo[b,e][1,4]diazepin-11-yl)amino)-N-(8-((2-(2,6-dioxopiperidin-3-yl)-1,3-dioxoisoindolin-4-yl)amino)octyl)pyrrolidine-1-carboxamide]?
A: remaining binding at 10 µM (ASK1): 73%; remaining binding at 10 µM (FLT1): 84%; remaining binding at 10 µM (PDGFRA): 100%; remaining binding at 10 µM (HIPK1): 100%; remaining binding at 10 µM (ERBB4): 97%; remaining binding at 10 µM (TTK): 55%; remaining binding at 10 µM (IGF1R): 70%; remaining binding at 10 µM (MAK): 98%; remaining binding at 10 µM (CAMK1D): 68%; remaining binding at 10 µM (PAK1): 20%; remaining binding at 10 µM [1]: 82%; remaining binding at 10 µM (TIE2): 98%; remaining binding at 10 µM (ERK1): 83%; remaining binding at 10 µM [2]: 97%; remaining binding at 10 µM (CDC2L1): 53%; remaining binding at 10 µM (FGFR3(G697C)): 95%; remaining binding at 10 µM (PRKCD): 97%; remaining binding at 10 µM (IRAK3): 55%; Phosphorylation of MEK S298 (MEK1 at S298): inhibited phosphorylation of MEK S298; remaining binding at 10 µM (YANK3): 72%; remaining binding at 10 µM (MERTK): 90%; remaining binding at 10 µM (ERN1): 93%; remaining binding at 10 µM [3]: 77%; remaining binding at 10 µM (PCTK3): 91%; remaining binding at 10 µM (DYRK2): 89%; remaining binding at 10 µM (BRK): 72%
